According to US10738056B2 (Aduro BioTech, Inc., priority 2017, dated 2020):
Read-outs that look alike come from different tables or passages of the source.

Assays:
[1] = system: cGAS/STING pathway in THP1 cells; test: THP1 cell-based cGAS/STING pathway activity assay (IRF-3-linked luciferase reporter)
Text: A cellular assay can be used to assess the compounds of the invention for their ability to inhibit the cGAS/STING pathway. Cells that express a luciferase-based reporter that is linked to IRF-3 activation are used to determine response as a function of compound concentration. Such an assay is described in Vincent et al., Nature Communications 2017, 8(1):750, doi: 10.1038/s41467-017-00833-9.
A cellular assay can be used to assess the compounds of the invention for their ability to inhibit the cGAS/STING pathway. Cells that express a luciferase-based reporter that is linked to IRF-3 activation are used to determine response as a function of compound concentration. Such an assay is described in Vincent et al., Nature Communications 2017, 8(1):750, doi: 10.1038/s41467-017-00833-9. Compounds of the invention were assessed using similar assay methods in a THP1 cell assay to generate IC50 values as provided in the following Table 16. In this table, activity level “A” indicates an IC50 value less than 20 μM, “B” indicates an IC50 value between 20 and 100 μM, and “C” indicates an IC50 value above the upper limit of the assay (100 μM), or where an IC50 value could not be generated from the data.

[2] = target: Human cGAS amino acids 155-522 (Homo sapiens (Human), UniProt Q8N884); test: cGAS biochemical activity assay (ATP remaining, Kinase-Glo Max luminescence)
Sequence of Human cGAS amino acids 155-522 (Q8N884 157-522): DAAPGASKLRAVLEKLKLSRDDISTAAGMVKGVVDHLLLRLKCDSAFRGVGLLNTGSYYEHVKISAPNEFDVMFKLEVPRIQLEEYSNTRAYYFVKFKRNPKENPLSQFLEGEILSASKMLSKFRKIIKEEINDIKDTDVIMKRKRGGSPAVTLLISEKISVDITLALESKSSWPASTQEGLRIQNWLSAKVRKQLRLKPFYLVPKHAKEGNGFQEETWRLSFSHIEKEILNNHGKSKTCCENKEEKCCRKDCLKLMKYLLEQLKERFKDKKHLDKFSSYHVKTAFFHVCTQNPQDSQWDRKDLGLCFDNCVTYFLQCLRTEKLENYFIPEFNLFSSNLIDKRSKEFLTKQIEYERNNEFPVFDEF

[3] = human cGAS 155-522, ATP remaining (Kinase-Glo Max), read-out: cGAS IC50

SMILES | IC50 ([1]; Homo sapiens, THP-1) [µM] | IC50 [2, 3] [µM] | IC50 ([1]; read-out: THP-1 IC50) [µM] | IC50 ([2]; cGAS IC50, human cGAS 155-522, ATP remaining (Kinase-Glo Max)) [µM]
COc1cccc2oc(-c3c(C(=O)NCC(C)(C)O)[nH]c4c(-c5ccccc5)c(C(F)(F)F)nn4c3=O)nc12 [Compound C1219, N-(2-hydroxy-2-methylpropyl)-6-(4-methoxybenzo[d]oxazol-2-yl)-7-oxo-3-phenyl-2-(trifluoromethyl)-4,7-dihydropyrazolo[1,5-a]pyrimidine-5-carboxamide] | > 100 | < 20 |  | 
CSc1cccc2oc(-c3c(C)[nH]c4c(-c5ccccc5)c(C#N)nn4c3=O)nc12 [Compound C1204, 5-methyl-6-(4-(methylthio)benzo[d]oxazol-2-yl)-7-oxo-3-phenyl-4,7-dihydropyrazolo[1,5-a]pyrimidine-2-carbonitrile] | > 100 | < 20 |  | 
Cc1[nH]c2c(-c3ccccc3)c(C#N)nn2c(=O)c1-c1nc2ccc(N)c(Cl)c2o1 [Compound C1271, 6-(6-amino-7-chlorobenzo[d]oxazol-2-yl)-5-methyl-7-oxo-3-phenyl-4,7-dihydropyrazolo[1,5-a]pyrimidine-2-carbonitrile] | > 100 | < 20 |  | 
Cc1[nH]c2c(-c3ccccc3)c(C(F)(F)F)nn2c(=O)c1-c1nc2c(S(C)(=O)=O)cccc2o1 [Compound C1054, 5-methyl-6-(4-(methylsulfonyl)benzo[d]oxazol-2-yl)-3-phenyl-2-(trifluoromethyl)pyrazolo[1,5-a]pyrimidin-7(4H)-one] | > 100 | 20 to 250 |  | 
COc1cccc2sc(-c3c(C)[nH]c4c(-c5ccccc5)c(C(F)(F)F)nn4c3=O)nc12 [Compound C1070, 6-(4-methoxybenzo[d]thiazol-2-yl)-5-methyl-3-phenyl-2-(trifluoromethyl)pyrazolo[1,5-a]pyrimidin-7(4H)-one] | < 20 | < 20 |  | 
Cc1[nH]c2c(-c3ccccc3)c(C(F)(F)F)nn2c(=O)c1-c1nnc(C2CCCCN2S(C)(=O)=O)o1 (centres unmarked) [Compound D1056, 5-methyl-6-(5-(1-(methylsulfonyl)piperidin-2-yl)-1,3,4-oxadiazol-2-yl)-3-phenyl-2-(trifluoromethyl)pyrazolo[1,5-a]pyrimidin-7(4H)-one] | > 100 | < 20 |  | 
COc1cccc2oc(-c3c(C(=O)NCC(O)C(F)(F)F)[nH]c4c(-c5ccccc5)c(C(F)(F)F)nn4c3=O)nc12 (centres unmarked) [Compound C1209, 6-(4-methoxybenzo[d]oxazol-2-yl)-7-oxo-3-phenyl-N-(3,3,3-trifluoro-2-hydroxypropyl)-2-(trifluoromethyl)-4,7-dihydropyrazolo[1,5-a]pyrimidine-5-carboxamide] | > 100 | < 20 |  | 
COC(=O)[C@@H]1COC(c2c(C)[nH]c3c(-c4ccccc4)c(C(F)(F)F)nn3c2=O)=N1 [Compound C1187, methyl (S)-2-(5-methyl-7-oxo-3-phenyl-2-(trifluoromethyl)-4,7-dihydropyrazolo[1,5-a]pyrimidin-6-yl)-4,5-dihydrooxazole-4-carboxylate] | > 100 | < 20 |  | 
COc1cccc2oc(-c3c(N)[nH]c4c(-c5ccccc5)c(C(F)(F)F)nn4c3=O)nc12 [Compound C1085, 5-amino-6-(4-methoxybenzo[d]oxazol-2-yl)-3-phenyl-2-(trifluoromethyl)pyrazolo[1,5-a]pyrimidin-7(4H)-one] | > 100 | < 20 |  | 
CCc1[nH]c2c(-c3ccccc3)c(C(F)(F)F)nn2c(=O)c1-c1nc2c(OC)cccc2o1 [Compound C1183, 5-ethyl-6-(4-methoxybenzo[d]oxazol-2-yl)-3-phenyl-2-(trifluoromethyl)pyrazolo[1,5-a]pyrimidin-7(4H)-one] | < 20 | < 20 |  | 
CO[C@@H]1CCCC(c2nnc(-c3c(C)[nH]c4c(-c5ccccc5)c(C(F)(F)F)nn4c3=O)o2)C1 (some centres unmarked) [D1021 Iso-2] |  | < 20 | > 100 | 
Cc1[nH]c2c(-c3ccccc3)c(C(F)(F)F)nn2c(=O)c1-c1nc2c(OC(=O)N(C)C)cccc2o1 [Compound C1088, 2-(5-methyl-7-oxo-3-phenyl-2-(trifluoromethyl)-4,7-dihydropyrazolo[1,5-a]pyrimidin-6-yl)benzo[d]oxazol-4-yl dimethylcarbamate] | 20 to 100 |  |  | < 20
Cc1[nH]c2c(-c3ccccc3)c(C(F)(F)F)nn2c(=O)c1-c1nnc(C2COCCN2)o1 (centres unmarked) [Compound D1042, 5-methyl-6-(5-(morpholin-3-yl)-1,3,4-oxadiazol-2-yl)-3-phenyl-2-(trifluoromethyl)pyrazolo[1,5-a]pyrimidin-7(4H)-one] | > 100 | 20 to 250 |  | 
Cc1[nH]c2c(-c3ccccc3)c(C(F)(F)F)nn2c(=O)c1-c1nnc([C@@H]2CCCOC2)o1 [Compound D1026, (R)-5-methyl-3-phenyl-6-(5-(tetrahydro-2H-pyran-3-yl)-1,3,4-oxadiazol-2-yl)-2-(trifluoromethyl)pyrazolo[1,5-a]pyrimidin-7(4H)-one] | > 100 | < 20 |  | 
Cc1[nH]c2c(-c3ccccc3)c(C(F)(F)F)nn2c(=O)c1C(=O)NS(C)(=O)=O [Compound A1117, 5-methyl-N-(methylsulfonyl)-7-oxo-3-phenyl-2-(trifluoromethyl)-4,7-dihydropyrazolo[1,5-a]pyrimidine-6-carboxamide] | > 100 | 20 to 250 |  | 
Cc1[nH]c2c(C(C)C)c(C(F)(F)F)nn2c(=O)c1-c1ccccc1 [Compound C1269, 3-isopropyl-5-methyl-6-phenyl-2-(trifluoromethyl)pyrazolo[1,5-a]pyrimidin-7(4H)-one] | 20 to 100 | > 250 |  | 
COc1cc(CN)cc2oc(-c3c(C)[nH]c4c(-c5ccccc5)c(C(F)(F)F)nn4c3=O)nc12 [Compound C1135, 6-(6-(aminomethyl)-4-methoxybenzo[d]oxazol-2-yl)-5-methyl-3-phenyl-2-(trifluoromethyl)pyrazolo[1,5-a]pyrimidin-7(4H)-one] | > 100 | < 20 |  | 
COCCNC(=O)c1[nH]c2c(-c3ccccc3)c(C(F)(F)F)nn2c(=O)c1-c1nc2c(OC)cccc2o1 [Compound C1142, 6-(4-methoxybenzo[d]oxazol-2-yl)-N-(2-methoxyethyl)-7-oxo-3-phenyl-2-(trifluoromethyl)-4,7-dihydropyrazolo[1,5-a]pyrimidine-5-carboxamide] |  | < 20 |  | 
Cc1[nH]c2c(-c3ccccc3)c(C#N)nn2c(=O)c1-c1nc2c(OC3CC3)cccc2o1 [Compound C1277, 6-(4-cyclopropoxybenzo[d]oxazol-2-yl)-5-methyl-7-oxo-3-phenyl-4,7-dihydropyrazolo[1,5-a]pyrimidine-2-carbonitrile] |  | < 20 |  | 
Cc1[nH]c2c(-c3ccccc3)c(C(F)(F)F)nn2c(=O)c1-c1nnc(C2CCCCN2C(=O)OC(C)(C)C)o1 (centres unmarked) [Compound D1045, tert-butyl 2-(5-(5-methyl-7-oxo-3-phenyl-2-(trifluoromethyl)-4,7-dihydropyrazolo[1,5-a]pyrimidin-6-yl)-1,3,4-oxadiazol-2-yl)piperidine-1-carboxylate] |  | 20 to 250 |  | 
Cc1[nH]c2c(-c3ccccc3)c(C(F)(F)F)nn2c(=O)c1-c1nnc(N2CCCC(O)C2)o1 (centres unmarked) [Compound D1087, 6-(5-(3-hydroxypiperidin-1-yl)-1,3,4-oxadiazol-2-yl)-5-methyl-3-phenyl-2-(trifluoromethyl)pyrazolo[1,5-a]pyrimidin-7(4H)-one] |  | 20 to 250 |  | 
CC(=O)N1CCC(c2nnc(-c3c(C)[nH]c4c(-c5ccccc5)c(C(F)(F)F)nn4c3=O)o2)CC1 [Compound D1054, 6-(5-(1-acetylpiperidin-4-yl)-1,3,4-oxadiazol-2-yl)-5-methyl-3-phenyl-2-(trifluoromethyl)pyrazolo[1,5-a]pyrimidin-7(4H)-one] |  | 20 to 250 |  | 
Cc1ccccc1NC(=O)c1c(C)[nH]c2c(-c3ccccc3)c(C(F)(F)F)nn2c1=O [Compound A1037, 5-methyl-7-oxo-3-phenyl-N-(o-tolyl)-2-(trifluoromethyl)-4,7-dihydropyrazolo[1,5-a]pyrimidine-6-carboxamide] |  | 20 to 250 |  | 
Cc1[nH]c2c(-c3ccccc3)c(C(F)(F)F)nn2c(=O)c1C(=O)Nc1ccccn1 [Compound A1017, 5-methyl-7-oxo-3-phenyl-N-(pyridin-2-yl)-2-(trifluoromethyl)-4,7-dihydropyrazolo[1,5-a]pyrimidine-6-carboxamide] |  | < 20 |  | 
Cc1[nH]c2c(-c3ccccc3)c(C#N)nn2c(=O)c1-c1ncco1 [Compound C1270, 5-methyl-6-(oxazol-2-yl)-7-oxo-3-phenyl-4,7-dihydropyrazolo[1,5-a]pyrimidine-2-carbonitrile] |  | < 20 |  | 
Cc1nc(-c2c(C)[nH]c3c(-c4ccccc4)c(C(F)(F)F)nn3c2=O)[nH]c1C [Compound C1021, 6-(4,5-dimethyl-1H-imidazol-2-yl)-5-methyl-3-phenyl-2-(trifluoromethyl)pyrazolo[1,5-a]pyrimidin-7(4H)-one] |  | 20 to 250 |  | 
Cc1[nH]c2c(-c3ccccc3)c(C(F)(F)F)nn2c(=O)c1-c1nnc(N2CCOCC2)o1 [Compound D1009, 5-methyl-6-(5-morpholino-1,3,4-oxadiazol-2-yl)-3-phenyl-2-(trifluoromethyl)pyrazolo[1,5-a]pyrimidin-7(4H)-one] |  | 20 to 250 |  | 
